Laboratory results taken from patent US20060025344A1, “Ghrelin receptor inverse agonists for regulation of feeding behaviors” (7TM Pharma A/S, priority 2002, published 2006).
“Also recorded” adds a separate entry of the source. Non-standard residues stand in square brackets, D forms with d. Residues, ends and D or L forms follow the SMILES beside them.

Columns and labels:
NK1 receptor = NK1 receptor (Homo sapiens, UniProt P25103); test: Block of SP induced accumulation of IP in COS-7 cells transiently transfected with the NK1 receptor; type: cell-based; details: data not shown
Chain of NK1 receptor (P25103 whole entry, species assumed): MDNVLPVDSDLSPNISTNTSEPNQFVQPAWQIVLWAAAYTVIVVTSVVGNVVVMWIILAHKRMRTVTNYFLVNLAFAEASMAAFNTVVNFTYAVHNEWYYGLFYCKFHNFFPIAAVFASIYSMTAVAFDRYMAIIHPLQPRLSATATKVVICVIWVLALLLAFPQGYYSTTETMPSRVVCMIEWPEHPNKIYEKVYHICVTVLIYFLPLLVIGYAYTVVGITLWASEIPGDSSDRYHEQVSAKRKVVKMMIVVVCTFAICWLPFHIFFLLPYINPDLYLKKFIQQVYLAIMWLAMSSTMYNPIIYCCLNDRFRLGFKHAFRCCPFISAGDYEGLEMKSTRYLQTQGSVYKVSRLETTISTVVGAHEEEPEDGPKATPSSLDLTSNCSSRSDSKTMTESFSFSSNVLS

bombesin receptor 1 = details: according to the literature; cited from earlier work
[1] = system: lean mice, mice with diet induced obesity, ob/ob obese mice; details: cited from earlier work
human ghrelin receptor = human ghrelin receptor (Homo sapiens, UniProt Q92847); test: Inverse agonism on basal, constitutive signalling measured by inositol phosphate turnover in transiently transfected COS-7 cells; type: cell-based; details: wild-type ghrelin receptor; for IC50: IP turnover
Chain of human ghrelin receptor (Q92847 whole entry): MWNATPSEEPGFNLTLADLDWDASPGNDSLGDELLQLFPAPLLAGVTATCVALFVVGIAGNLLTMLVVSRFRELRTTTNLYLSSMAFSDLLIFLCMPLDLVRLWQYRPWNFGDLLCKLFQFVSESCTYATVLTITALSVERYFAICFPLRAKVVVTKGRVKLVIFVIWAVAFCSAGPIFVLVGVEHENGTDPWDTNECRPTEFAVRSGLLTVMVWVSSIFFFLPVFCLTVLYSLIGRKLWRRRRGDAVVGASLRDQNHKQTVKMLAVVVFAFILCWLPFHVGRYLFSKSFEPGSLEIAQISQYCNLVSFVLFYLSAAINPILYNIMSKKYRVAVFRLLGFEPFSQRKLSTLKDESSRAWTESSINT
Procedure: Cells were transfected with Lipofectamine 2000 (Life Technologies).
(§1) Cells were washed twice in buffer, 20 mM HEPES, pH 7.4, supplemented with 140 mM NaCl, 5 mM KCl, 1 mM MgSO4, 1 mM CaCl2, 10 mM glucose, 0.05% (w/v) bovine serum; and were incubated in 0.5 ml buffer supplemented with 10 mM LiCl at 37 °C. for 30 min. […] Determinations were made in duplicates.

[2] = biological target: metal-ion site engineered ghrelin receptor (V:01 and V:05 substituted with His) (Homo sapiens, UniProt Q92847, L209H/M213H); test: Inverse agonism on basal inositol phosphate turnover in the metal-ion site engineered receptor; type: cell-based
Chain of metal-ion site engineered ghrelin receptor (V:01 and V:05 substituted with His) (Q92847 whole entry L209H/M213H): as the sequence (Q92847 whole entry) above, with L209H, M213H counted along it
Procedure: as §1
Metal-ion site engineering has previously been used as a molecular probe for both antagonism, agonism and inverse agonism (Elling et al., 1995; Elling et al., 1999; Rosenkilde et al., 1999). Here we built a metal-ion binding site into the ghrelin receptor by substituting residues V:01 and V:05 with His residues. 125 l-ghrelin bound with normal high affinity to the metal-ion site engineered receptor and ghrelin could stimulate IP turnover with a potency and efficacy as in the wild-type receptor (data not shown). […] A similar result has been obtained in the HHV8 encoded constitutively active ORF-74 receptor (Rosenkilde et al., 1999). […] This is important for the invention since the invention is aimed at small molecule, preferentially non-peptide compounds which will serve as inverse agonists against the receptor and most of these will conceivably as the majority of small molecule drugs in general in 7TM G protein coupled receptor bind in between the extracellular ends of the transmembrane segments.

IC50 (human ghrelin receptor) [µM]	IC50 ([2]; metal ion site engineered receptor, IP turnover, read-out: IC50 for inverse agonism on basal, constitutive signalling) [µM]	efficacy as inverse agonist (in words) ([2]; metal-ion site engineered receptor)	SMILES	antagonist potency on the NK1 receptor (in words) (NK1 receptor)	antagonist potency on the bombesin receptor (in words) (bombesin receptor 1)	energy intake / food intake ([1]; lean mice, diet induced obesity mice, ob/ob obese mice, repeated administrations for six days)	rate of gastric emptying ([1]; mice)	body weight gain ([1]; repeated administrations, obese ob/ob mice (normal and obese mice))	glycaemic control ([1]; repeated administrations, obese ob/ob mice)	efficacy as inverse agonist (in words) (human ghrelin receptor; absence of ghrelin)
			CC(C)C[C@H](NC(=O)[C@H](CC(C)C)NC(=O)[C@@H](Cc1c[nH]c2ccccc12)NC(=O)[C@H](Cc1ccccc1)NC(=O)[C@@H](Cc1c[nH]c2ccccc12)NC(=O)[C@H](CCC(N)=O)NC(=O)[C@@H](Cc1ccccc1)NC(=O)[C@@H]1CCCN1C(=O)[C@H](CCCCN)NC(=O)[C@@H]1CCCN1C(=O)[C@H](N)CCCNC(=N)N)C(N)=O [[D-Arg^1, D-Phe^5, D-Trp^7,9, Leu^11]-Substance P] (H-[dR]PKP[dF]Q[dW]F[dW]LL-NH2; N-terminus and C-terminus assumed)	micromolar antagonist; also recorded: at micromolar concentrations also has effects	micromolar antagonist	decreased	reduced	decreased	improved	
160 ± 70	4.3 ± 0.2	full inverse agonist	[Zn+2] [Zn(II)]							
6.5			O=C(O)CCc1ccc(-c2ccc(Br)cc2)n1-c1cccc(C(F)(F)F)c1 [TM27810, 3-[5-(4-Bromo-phenyl)-1-(3-trifluoromethyl-phenyl)-1H-pyrrol-2-yl]-propionic acid]							high efficacy inverse agonist; also recorded: efficiently decreases the constitutive signalling activity
